row,melting point,SMILES
1,119 to 120 °C,"O=C(O)c1cn(Cc2ccc(OCc3csc(-c4ccccc4)n3)cc2)nc1-c1ccccc1 [Example 94, 3-phenyl-1-[4-(2-phenyl-4-thiazolylmethoxy)benzyl]-1H-pyrazol-4-carboxylic acid]"
2,155 to 156 °C,"O=C(O)CCc1cn(Cc2ccc(OCCn3ncc4ccccc4c3=O)cc2)nc1-c1ccccc1 [Example 286, 3-[1-[4-[2-[1-oxophthalazin-2(1H)-yl]ethoxy]benzyl]-3-phenyl-1H-pyrazol-4-yl]propionic acid]"
3,110 to 111 °C,"CN(CCOc1ccc(Cn2cc(CCC(=O)O)c(-c3ccccc3)c2)cc1)c1ccccn1 [Example 49, 3-[1-[4-[2-[N-methyl-N-(2-pyridyl)amino]ethoxy]benzyl]-4-phenyl-3-pyrrolyl]propionic acid]"
4,194 to 195 °C,"O=C(O)Cc1cn(Cc2ccc(OCc3ccccc3)cc2)nc1-c1ccc(F)cc1 [Example 317, [1-(4-benzyloxybenzyl)-3-(4-fluorophenyl)-1H-pyrazol-4-yl]acetic acid]"
5,165 to 166 °C,"Cc1oc(-c2ccccc2)nc1COc1ccc(Cn2cc(C(=O)O)c(-c3ccccc3)n2)cc1 [Example 93, 1-[4-(5-methyl-2 phenyl-4-oxazolylmethoxy)benzyl]-3-phenyl-1H-pyrazol-4-carboxylic acid]"
6,118 to 119 °C,"O=C(O)Cc1cn(Cc2ccc(OCc3csc(-c4ccccc4)n3)nc2)nc1-c1ccccc1 [Example 310, [3-phenyl-1-[6-(2-phenyl-4-thiazolylmethoxy)-3-pyridylmethyl]-1H-pyrazol-4-yl]acetic acid]"
7,111 to 112 °C,"COc1cc(Cn2cc(CCC(=O)O)c(-c3ccccc3)c2)cc(OCc2csc(-c3cnccn3)n2)c1 [Example 71, 3-[1-[3-methoxy-5-[2-(2-pyrazinyl)-4-thiazolylmethoxy]benzyl]-4-phenyl-3-pyrrolyl]propionic acid]"
8,92 to 93 °C,"CCOc1nn(Cc2ccc(OCc3cncc(-c4ccccc4)c3)cc2)cc1CCC(=O)O [Example 240, 3-[3-ethoxy-1-[4-(5-phenyl-3-pyridylmethoxy)benzyl]-1H-pyrazol-4-yl]propionic acid]"
9,133 to 134 °C,"CCOc1nn(Cc2cncc(OCc3nc(-c4ccccc4)oc3C)c2)cc1CCC(=O)O [Example 213, 3-[3-ethoxy-1-[5-(5-methyl-2-phenyl-4-oxazolylmethoxy)-3-pyridylmethyl]-1H-pyrazol-4-yl]propionic acid]"
10,154 to 155 °C,"Cc1oc(-c2ccccc2)nc1COc1ccc(Cn2cc(/C=C/C(=O)O)c(-c3ccccc3)c2)cc1 [Example 5, (E)-3-[1-[4-(5-methyl-2-phenyl-4-oxazolylmethoxy)benzyl]-4-phenyl-3-pyrrolyl]propenoic acid]"
11,185 to 186 °C,"O=C(O)CCc1cn(Cc2ccc(OCc3ccc(-c4ccccc4)nc3)cc2)cc1-c1ccccc1 [Example 277, 3-[4-phenyl-1-[4-(6-phenyl-3-pyridylmethoxy)benzyl]-3-pyrrolyl]propionic acid]"

# The next lines start with the compound.
row,SMILES,melting point
1,"Cc1oc(-c2ccncc2)nc1COc1ccc(Cn2cc(CCC(=O)O)c(-c3ccccc3)n2)cc1 [Example 83, 3-[1-[4-[5-methyl-2-(4-pyridyl)-4-oxazolylmethoxy]benzyl]-3-phenyl-1H-pyrazol-4-yl]propionic acid]",154 to 155 °C
2,"CCOc1nn(Cc2ccnc(OCc3nc(-c4ccccc4)oc3C)c2)cc1CCC(=O)O [Example 211, 3-[3-ethoxy-1-[2-(5-methyl-2-phenyl-4-oxazolylmethoxy)-4-pyridylmethyl]-1H-pyrazol-4-yl]propionic acid]",114 to 115 °C
3,"O=C(O)c1cn(Cc2ccc(OCc3ccccc3)cc2)nc1-c1ccccc1 [Example 92, 1-(4-benzyloxybenzyl)-3-phenyl-1H-pyrazol-4-carboxylic acid]",152 to 153 °C
4,"Cc1oc(-c2ccccc2)nc1COc1nn(Cc2ccc(Oc3ccccc3)cc2)cc1C(N)=O [Example 331, 3-(5-methyl-2-phenyl-4-oxazolylmethoxy)-1-(4-phenoxybenzyl)-1H-pyrazole-4-carbamide]",158 to 159 °C
5,"O=C(O)CCc1cn(Cc2cc(OCc3ccccc3)cc(OCc3csc(-c4cnccn4)n3)c2)cc1-c1ccccc1 [Example 75, 3-[1-[3-benzyloxy-5-[2-(2-pyrazinyl)-4-thiazolylmethoxy]benzyl]-4-phenyl-3-pyrrolyl]propionic acid]",109 to 110 °C
6,"CCOc1nn(Cc2ccc(OCc3nc4ccccc4n3C)cc2)cc1CCC(=O)O [Example 248, 3-[3-ethoxy-1-[4-(1-methyl-1H-benzimidazol-2-ylmethoxy)benzyl]-1H-pyrazol-4-yl]propionic acid]",177 to 178 °C
7,"Cc1ncccc1COc1ccc(Cn2cc(CCC(=O)O)c(-c3ccccc3)c2)cc1 [Example 26, 3-[1-[4-(2-methyl-3-pyridylmethoxy)benzyl]-4-phenyl-3-pyrrolyl]propionic acid]",158 to 159 °C
8,"Cc1oc(-c2ccco2)nc1COc1ccc(COc2nn(Cc3ccc(OCc4nc(-c5ccco5)oc4C)cc3)cc2C(=O)O)cc1 [Example 326, 1-[4-[2-(2-furyl)-5-methyl-4-oxazolylmethoxy]benzyl]-3-[4-[2-(2-furyl)-5-methyl-4-oxazolylmethoxy]benzyloxy]-1H-pyrazole-4-carboxylic acid]",144 to 145 °C
9,"Cc1oc(-c2ccco2)nc1COc1ccc(Cn2cc(CCC(=O)O)c(-c3ccc(C(F)(F)F)cc3)n2)cc1 [Example 103, 3-[1-[4-[2-(2-furyl)-5-methyl-4-oxazolylmethoxy)benzyl]-3-(4-trifluoromethylphenyl)-1H-pyrazol-4-yl]propionic acid]",92 to 93 °C
10,"CCOC(=O)c1cn(Cc2ccc(Oc3ccccc3)cc2)nc1OCc1ccc(OCc2nc(-c3ccco3)oc2C)c(OC)c1 [Example 321, ethyl 3-[4-[2-(2-furyl)-5-methyl-4-oxazolylmethoxy]-3-methoxybenzyloxy]-1-(4-phenoxybenzyl)-1H-pyrazole-4-carboxylate]",98 to 99 °C
11,"O=C(O)c1cn(Cc2ccc(Oc3ccccc3)cc2)nc1OCc1ccc(Oc2ccccc2)cc1 [Example 320, 1-(4-phenoxybenzyl)-3-(4-phenoxybenzyloxy)-1H-pyrazole-4-carboxylic acid]",141 to 142 °C
12,"CCOc1nn(Cc2ccc(OCc3ccc(-c4ccccc4)nc3)cc2)cc1CCC(=O)O [Example 230, 3-[3-ethoxy-1-[4-(6-phenyl-3-pyridylmethoxy)benzyl]-1H-pyrazol-4-yl]propionic acid]",140 to 141 °C
13,"CCOc1nn(Cc2ccc(OCc3ccc(-c4ccccc4)cn3)cc2)cc1CCC(=O)O [Example 250, 3-[3-ethoxy-1-[4-(5-phenyl-2-pyridylmethoxy)benzyl]-1H-pyrazol-4-yl]propionic acid]",127 to 128 °C
14,"O=C(O)CCc1cn(Cc2ccc(OCc3ccncc3)cc2)cc1-c1ccccc1 [Example 13, 3-[4-phenyl-1-[4-(4-pyridylmethoxy)benzyl]-3-pyrrolyl]propionic acid]",124 to 125 °C
15,"Cc1oc(-c2ccccc2)nc1COc1ccc(Cn2cc(CCC(=O)O)c(-c3ccccc3)n2)nc1 [Example 306, 3-[1-[5-(5-methyl-2-phenyl-4-oxazolylmethoxy)-2-pyridylmethyl]-3-phenyl-1H-pyrazol-4-yl]propionic acid]",175 to 176 °C

# Reference: patent US7179823B1, “5-membered n-heterocyclic compounds with hypoglycemic and hypolipidemic activity” (Takeda Pharmaceutical Company Limited, priority 1999, dated 2007)
